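Values below derive from 48-hour exposures of cells grown in 96-well plates, with endpoints linearly interpolated between the two concentrations bracketing the appropriate inhibition level. TGI: total growth inhibition.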
Legend:
Test in all cases: NCI anticancer screen, dose series, 48 h
SF-268 CNS = system: SF-268 CNS
SK-MEL-2 melanoma = system: SK-MEL-2 melanoma
OVCAR-3 ovarian = system: OVCAR-3 ovarian
M14 melanoma = system: M14 melanoma
SK-MEL-5 melanoma = system: SK-MEL-5 melanoma
NCI-H460 lung = system: NCI-H460 lung
KM20L2 colon = system: KM20L2 colon
HL-60(TB) leukemia = system: HL-60(TB) leukemia
SN12C renal = system: SN12C renal
HOP-62 NSCLC = system: HOP-62 NSCLC
RXF 393 renal = system: RXF 393 renal
M19-MEL melanoma = system: M19-MEL melanoma
COLO 205 colon = system: COLO 205 colon
ACHN renal = system: ACHN renal
SK-OV-3 ovarian = system: SK-OV-3 ovarian
TK-10 renal = system: TK-10 renal
SF-295 CNS = system: SF-295 CNS
MOLT-4 leukemia = system: MOLT-4 leukemia
UACC-257 melanoma = system: UACC-257 melanoma
SK-MEL-28 melanoma = system: SK-MEL-28 melanoma
RPMI-8226 leukemia = system: RPMI-8226 leukemia
OVCAR-5 ovarian = system: OVCAR-5 ovarian
DLD-1 colon = system: DLD-1 colon
SNB-78 CNS = system: SNB-78 CNS
LOX IMVI melanoma = system: LOX IMVI melanoma
HCT-116 colon = system: HCT-116 colon
OVCAR-8 ovarian = system: OVCAR-8 ovarian
NCI-H23 lung = system: NCI-H23 lung
NCI-H522 lung = system: NCI-H522 lung
SNB-19 CNS = system: SNB-19 CNS
A498 renal = system: A498 renal
SW-620 colon = system: SW-620 colon
NCI-H226 lung = system: NCI-H226 lung
KM12 colon = system: KM12 colon
A549 NSCLC = system: A549 NSCLC
HT29 colon = system: HT29 colon
DMS 114 small cell lung = system: DMS 114 small cell lung
UO-31 renal = system: UO-31 renal
HOP-92 NSCLC = system: HOP-92 NSCLC
HCT-15 colon = system: HCT-15 colon
RXF-631 renal = system: RXF-631 renal
786-0 renal = system: 786-0 renal
MALME-3M melanoma = system: MALME-3M melanoma
UACC-62 melanoma = system: UACC-62 melanoma
HCC-2998 colon = system: HCC-2998 colon
SF-539 CNS = system: SF-539 CNS
LXFL 529 NSCLC = system: LXFL 529 NSCLC
CAKI-1 renal = system: CAKI-1 renal
U251 CNS = system: U251 CNS
EKVX NSCLC = system: EKVX NSCLC
SNB-75 CNS = system: SNB-75 CNS
IGROV1 ovarian = system: IGROV1 ovarian
OVCAR-4 ovarian = system: OVCAR-4 ovarian
CCRF-CEM leukemia = system: CCRF-CEM leukemia
SR leukemia = system: SR leukemia
K-562 leukemia = system: K-562 leukemia

N#Cc1cc([N+](=O)[O-])ccc1NC(=O)C(=O)C(C(=O)c1ccc2ccccc2c1)C1OCc2ccccc21 (stereo unspecified)
TGI (SF-268 CNS): 47.7 µM | TGI (SK-MEL-2 melanoma): 16.2 µM | TGI (OVCAR-3 ovarian): > 47.6 µM | TGI (M14 melanoma): 30.1 µM | TGI (SK-MEL-5 melanoma): 24.8 µM | TGI (NCI-H460 lung): 20.5 µM | TGI (KM20L2 colon): 42.6 µM | TGI (HL-60(TB) leukemia): 46.7 µM | TGI (SN12C renal): 46.5 µM | TGI (HOP-62 NSCLC): 15.6 µM | TGI (RXF 393 renal): 12.4 µM | TGI (M19-MEL melanoma): 31.6 µM | TGI (COLO 205 colon): 27.8 µM | TGI (ACHN renal): > 71.1 µM | TGI (SK-OV-3 ovarian): > 100 µM | TGI (TK-10 renal): 45.8 µM | TGI (SF-295 CNS): 23.9 µM | TGI (MOLT-4 leukemia): 21.8 µM | TGI (UACC-257 melanoma): 28.2 µM | TGI (SK-MEL-28 melanoma): 21.4 µM | TGI (RPMI-8226 leukemia): > 66.6 µM | TGI (OVCAR-5 ovarian): 29.2 µM | TGI (DLD-1 colon): 54.2 µM | TGI (SNB-78 CNS): 35.2 µM | TGI (LOX IMVI melanoma): 29.5 µM | TGI (HCT-116 colon): 16.2 µM | TGI (OVCAR-8 ovarian): 20.9 µM | TGI (NCI-H23 lung): 14.9 µM | TGI (NCI-H522 lung): 13.8 µM | TGI (SNB-19 CNS): 21.1 µM | TGI (A498 renal): 20.6 µM | TGI (SW-620 colon): 41.1 µM | TGI (NCI-H226 lung): 4.46 µM | TGI (KM12 colon): 30.4 µM | TGI (A549 NSCLC): > 89 µM | TGI (HT29 colon): 32.5 µM | TGI (DMS 114 small cell lung): 29.7 µM | TGI (UO-31 renal): 26.5 µM | TGI (HOP-92 NSCLC): 21.6 µM | TGI (HCT-15 colon): 37.7 µM | TGI (RXF-631 renal): 37.5 µM | TGI (786-0 renal): 14.7 µM | TGI (MALME-3M melanoma): 26.8 µM | TGI (UACC-62 melanoma): 36.4 µM | TGI (HCC-2998 colon): 22.7 µM | TGI (SF-539 CNS): 5.83 µM | TGI (LXFL 529 NSCLC): 13.7 µM | TGI (CAKI-1 renal): > 50.3 µM | TGI (U251 CNS): 16.8 µM | TGI (EKVX NSCLC): 37.4 µM | TGI (SNB-75 CNS): 16.1 µM | TGI (IGROV1 ovarian): 61.6 µM | TGI (OVCAR-4 ovarian): > 55.2 µM | TGI (CCRF-CEM leukemia): 39.2 µM | TGI (SR leukemia): 16.9 µM | TGI (K-562 leukemia): 65.2 µM
